A short description of data set [1]: Solubility of Biotin in aqueous niacinamide / sodium ascorbyl phosphate solutions (addition until turbid). It counts as physicochemical. On the procedure:
The solubility of Biotin was assessed in aqueous niacinamide (Niacinamide PC, DSM Nutritional Products)/sodium ascorbyl phosphate (STAY-C® 50, DSM Nutritional Products) solutions in different concentration. As reference, the solubility of biotin in water was assessed.
After the addition of 5 g of water into a 10 ml glass vial, STAY-C® 50 and Niacinamide PC were added in order to yield the ratios and wt. % as indicated in table 1. The mixtures were stirred with a magnetic stirrer at RT until STAY-C® 50 and Niacinamide PC were completely dissolved. Then, biotin was added in about 1 mg steps to the mixture until the solution becomes turbid. This experiment was repeated twice.
The sum of the amount of biotin which was added before the turbidity occurred is taken as the solubility of Biotin.

For data set [2] the following is noted: hot water; cited from earlier work.

Where two headings read alike, the source gives them in different places.

As to `O=C(O)CCCC[C@@H]1SC[C@@H]2NC(=O)N[C@@H]21` [Biotin], the “Solubility of Biotin” value in data set [1] (Reference: water without STAY-C 50 and Niacinamide PC, RT) was 0.022 wt. %; in data set [1] (water, STAY-C 50 0.1 wt. %, Niacinamide PC 1 wt. %, ratio 1:10, RT) it was 0.15 wt. %; in data set [1] (water, STAY-C 50 0.1 wt. %, Niacinamide PC 3 wt. %, ratio 1:30, RT) it was 0.17 wt. %; in data set [1] (water, STAY-C 50 0.1 wt. %, Niacinamide PC 5 wt. %, ratio 1:50, RT), 0.20 wt. %; in data set [1] (water, STAY-C 50 0.1 wt. %, Niacinamide PC 10 wt. %, ratio 1:100, RT) it was 0.26 wt. %; in data set [1] (water, STAY-C 50 0.5 wt. %, Niacinamide PC 1 wt. %, ratio 1:2, RT) it was 0.33 wt. %. Further, the “Solubility of Biotin” value is on record as 0.38 wt. % in data set [1] (water, STAY-C 50 0.5 wt. %, Niacinamide PC 3 wt. %, ratio 1:6, RT); 0.41 wt. % in data set [1] (water, STAY-C 50 0.5 wt. %, Niacinamide PC 5 wt. %, ratio 1:10, RT); 0.47 wt. % in data set [1] (water, STAY-C 50 0.5 wt. %, Niacinamide PC 10 wt. %, ratio 1:20, RT); 0.64 wt. % in data set [1] (water, STAY-C 50 1.0 wt. %, Niacinamide PC 1 wt. %, ratio 1:1, RT); 0.66 wt. % in data set [1] (water, STAY-C 50 1.0 wt. %, Niacinamide PC 3 wt. %, ratio 1:3, RT); 0.70 wt. % in data set [1] (water, STAY-C 50 1.0 wt. %, Niacinamide PC 5 wt. %, ratio 1:5, RT). In addition, the “Solubility of Biotin” value in data set [1] (water, STAY-C 50 1.0 wt. %, Niacinamide PC 10 wt. %, ratio 1:10, RT) was 0.76 wt. %; in data set [1] (water, STAY-C 50 3.0 wt. %, Niacinamide PC 1 wt. %, ratio 3:1, RT), 1.53 wt. %; in data set [1] (water, STAY-C 50 3.0 wt. %, Niacinamide PC 3 wt. %, ratio 1:1, RT), 1.65 wt. %; in data set [1] (water, STAY-C 50 3.0 wt. %, Niacinamide PC 5 wt. %, ratio 1:1.6, RT), 1.71 wt. %; in data set [1] (water, STAY-C 50 3.0 wt. %, Niacinamide PC 10 wt. %, ratio 1:3.3, RT), 1.78 wt. %; in data set [2], “about 0.02 g/100 ml”.

Source of the values: patent US20100105638A1, “COSMETIC COMPOSITIONS” (priority 2007, published 2010).
